In ChEMBL document CHEMBL4261509, “Insight into the complete substrate-binding pocket of ThiT by chemical and genetic mutations” (Medchemcomm, 2017):

Experiments:
[1] = biological target: T1, Thiamine transporter ThiT (Lactococcus lactis subsp. cremoris (strain MG1363), UniProt A2RI47); assay: Binding affinity to wild-type Lactococcus lactis MG1363 N-terminal His8-tagged ThiT expressed in Lactococcus lactis NZ9000 incubated for 10 secs measured over 15 secs by fluorescence spectrophotometric method
T1 sequence (A2RI47 whole entry): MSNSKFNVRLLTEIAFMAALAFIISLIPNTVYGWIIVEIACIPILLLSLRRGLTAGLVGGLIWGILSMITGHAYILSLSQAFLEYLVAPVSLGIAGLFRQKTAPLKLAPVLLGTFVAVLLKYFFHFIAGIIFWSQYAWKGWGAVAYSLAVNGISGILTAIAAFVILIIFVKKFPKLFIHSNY

[2] = biological target: Thiamine transporter ThiT (Lactococcus lactis subsp. cremoris (strain MG1363), UniProt A2RI47, H125A); assay: Binding affinity to Lactococcus lactis MG1363 N-terminal His8-tagged ThiT His125Ala mutant expressed in Lactococcus lactis NZ9000 by isothermal calorimetric titration method
[3] = biological target: Thiamine transporter ThiT (Lactococcus lactis subsp. cremoris (strain MG1363), UniProt A2RI47, E84D); assay: Binding affinity to Lactococcus lactis MG1363 N-terminal His8-tagged ThiT Glu84Asp mutant expressed in Lactococcus lactis NZ9000 by isothermal calorimetric titration method
[4] = biological target: Thiamine transporter ThiT (Lactococcus lactis subsp. cremoris (strain MG1363), UniProt A2RI47, H125N); assay: Binding affinity to Lactococcus lactis MG1363 N-terminal His8-tagged ThiT His125Asn mutant expressed in Lactococcus lactis NZ9000 by isothermal calorimetric titration method
[5] = biological target: Thiamine transporter ThiT (Lactococcus lactis subsp. cremoris (strain MG1363), UniProt A2RI47, E84A); assay: Binding affinity to Lactococcus lactis MG1363 N-terminal His8-tagged ThiT Glu84Ala mutant expressed in Lactococcus lactis NZ9000 by isothermal calorimetric titration method
[6] = biological target: Thiamine transporter ThiT (Lactococcus lactis subsp. cremoris (strain MG1363), UniProt A2RI47, W34A); assay: Binding affinity to Lactococcus lactis MG1363 N-terminal His8-tagged ThiT Trp34Ala mutant expressed in Lactococcus lactis NZ9000 incubated for 5 secs measured over 20 secs by fluorescence spectrophotometric method
[7] = biological target: Thiamine transporter ThiT (Lactococcus lactis subsp. cremoris (strain MG1363), UniProt A2RI47, E84Q); assay: Binding affinity to Lactococcus lactis MG1363 N-terminal His8-tagged ThiT Glu84Gln mutant expressed in Lactococcus lactis NZ9000 by isothermal calorimetric titration method
[8] = biological target: T1, Thiamine transporter ThiT; assay: Binding affinity to wild-type Lactococcus lactis MG1363 N-terminal His8-tagged ThiT expressed in Lactococcus lactis NZ9000 by isothermal calorimetric titration method

Thiamine transporter ThiT (Lactococcus lactis subsp. cremoris (strain MG1363), UniProt A2RI47, W34A), sequence (A2RI47 whole entry W34A): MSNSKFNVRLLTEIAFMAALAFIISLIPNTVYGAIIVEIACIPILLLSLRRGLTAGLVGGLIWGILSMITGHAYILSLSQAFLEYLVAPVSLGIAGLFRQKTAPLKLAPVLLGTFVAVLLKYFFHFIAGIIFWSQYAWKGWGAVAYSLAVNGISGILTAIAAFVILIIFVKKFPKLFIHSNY
Thiamine transporter ThiT (Lactococcus lactis subsp. cremoris (strain MG1363), UniProt A2RI47, E84A), sequence (A2RI47 whole entry E84A): as the sequence (A2RI47 whole entry W34A) above, with A34W, E84A counted along it
Thiamine transporter ThiT (Lactococcus lactis subsp. cremoris (strain MG1363), UniProt A2RI47, E84D), sequence (A2RI47 whole entry E84D): as the sequence (A2RI47 whole entry W34A) above, with A34W, E84D counted along it
Thiamine transporter ThiT (Lactococcus lactis subsp. cremoris (strain MG1363), UniProt A2RI47, H125A), sequence (A2RI47 whole entry H125A): as the sequence (A2RI47 whole entry W34A) above, with A34W, H125A counted along it
Thiamine transporter ThiT (Lactococcus lactis subsp. cremoris (strain MG1363), UniProt A2RI47, E84Q), sequence (A2RI47 whole entry E84Q): as the sequence (A2RI47 whole entry W34A) above, with A34W, E84Q counted along it
Thiamine transporter ThiT (Lactococcus lactis subsp. cremoris (strain MG1363), UniProt A2RI47, H125N), sequence (A2RI47 whole entry H125N): as the sequence (A2RI47 whole entry W34A) above, with A34W, H125N counted along it

Row | SMILES | Kd [1] | also measured
1 | Cc1ncc(C[n+]2csc(CCO[P@](=O)(O)OP(=O)(O)O)c2C)c(N)n1 [COCARBOXYLASE] | 1.6 nM | –
2 | Cc1ncc(Cc2csc(CCS[C@@H]3O[C@H](CO)[C@@H](O)[C@H](O)[C@H]3O)c2C)c(N)n1 | 183 nM | –
3 | Cc1ncc(Cc2csc(CCOC(=O)c3c[nH]c4ccccc34)c2C)c(N)n1 | 20.1 nM | –
4 | Cc1ncc(Cc2cccc(CCO)c2)c(N)n1 | 266 nM | –
5 | Cc1ncc(C[n+]2csc(CCO)c2C)c(N)n1 [THIAMINE ION] | 0.122 nM | Kd [2]: 14.9 nM; Kd [3]: 2.21 nM; Kd [4]: 13.6 nM; Kd [5]: 3650 nM; Kd [6]: 0.35 nM; Kd [7]: 13600 nM
6 | Cc1ncc(Cc2csc(COCc3ccccc3)c2C)c(N)n1 | 40.3 nM | –
7 | Cc1ncc(Cc2csc(CNCC34CC5CC(CC(C5)C3)C4)c2C)c(N)n1 | – | Kd [8]: 49800 nM
8 | Cc1ncc(Cn2cc(CCO)nn2)c(N)n1 | – | Kd [8]: 28600 nM
9 | Cc1ncc(Cc2cc(CO)cc(C(F)(F)F)c2)c(N)n1 | – | Kd [8]: 2300 nM
10 | Cc1ncc(C[n+]2cccc(CCO)c2C)c(N)n1 | 0.18 nM | –
11 | Cc1cc(CO)cc(Cc2cnc(C)nc2N)c1 | – | Kd [8]: 1990 nM
12 | Cc1ncc(Cc2csc(COP(=O)(O)OP(=O)(O)O)c2C)c(N)n1 | 209 nM | –
13 | Cc1ncc(Cc2csc(CNCc3ccccn3)c2C)c(N)n1 | 96.7 nM | –
14 | Cc1ncc(Cc2csc(CNCC(c3ccccc3)c3ccccc3)c2C)c(N)n1 | 168 nM | –
15 | Cc1ncc(Cc2cccc(CO)c2)c(N)n1 | 528 nM | –
